The test system of this test is L1210. As to the kind of experiment: In vitro antitumor activity against L1210 cancer cell line. The note with it: Mus musculus. Format: functional, cell-based.

`O=C(/N=C\NNC(=O)NO)NO` had an IC50 of 82 µM.

(Values after ChEMBL document CHEMBL1145997, “Understanding the antitumor activity of novel hydroxysemicarbazide derivatives as ribonucleotide reductase inhibitors using CoMFA and CoMSIA” (J Med Chem, 2003).)
